The source of these data is ChEMBL document CHEMBL1133316, “Synthesis and antiviral activity of acyclovir-5'-(phenyl methoxy alaninyl) phosphate as a possible membrane-soluble nucleotide prodrug” (Bioorg Med Chem Lett, 2000).

Some results are limits rather than exact numbers.

The subject of assay [1] is Vero. Briefly: Compound was tested for inhibition against herpes simplex virus (HSV-2) infected vero cells. It counts as functional, cell-based. As to conditions: Chlorocebus sabaeus.
Assay [2] concerns Vero. The assay can be described thus: Compound was tested for cytotoxic activity uninfected vero cells. Type of assay: functional. As to conditions: Chlorocebus sabaeus.
In assay [3] the test system is MRC5. The assay can be described thus: Compound was tested for inhibition against Varicella zoster virus(VZV) infected MRC5 cells. It counts as functional, cell-based. The settings on record: Homo sapiens.
Assay [4] has as its system MRC5. The assay can be described thus: Compound was tested for inhibition against human cytomegalovirus (HCMV) in MRC-5 cells. It counts as functional, cell-based.
The subject of assay [5] is MRC5. Briefly: Compound was tested for inhibition against varicella zoster virus(VZV) infected MRC5 cells. The settings on record: Homo sapiens.

The EC50 is the midpoint of the concentration-response curve. Broadly, the CC50 is the concentration at which the toxic effect on the cells reaches its halfway point.

For the molecule `COC(=O)C(C)NP(=O)(OCCOCn1cnc2c(O)nc(N)nc21)Oc1ccccc1` (stereo not drawn), the EC50 was above 100 µM with Vero [1], 16 µM with MRC5 [3] and 12 µM with MRC5 [4]. The CC50 in the assay on Vero [2] was above 5 µM.
For the molecule `Nc1nc2c(ncn2COCCO)c(=O)[nH]1` [ACYCLOVIR], the EC50 with Vero [1] came out at 3 µM; in the assay on MRC5 [5], 5 µM; with MRC5 [4], 50 µM. In addition, in the assay on Vero [2], the CC50 is above 5 µM.
